This is an account of results in patent EP0450573A2, “Antibodies for the treatment and diagnosis of Pseudomonas aeruginosa infections” (priority 1990, dated 1991).

This test has as its system P. aeruginosa strain FI-6(A366). Nature of the test: Opsonophagocytic assay (bactericidal activity with complement and polymorphonuclear cells). To be noted: cefepime alone, 0 µg/ml 6D7 data point of Figure 1. The test is classed as cell-based. The method, then:
Overnight cultures of P. aeruginosa FI-6 in adjusted Miller-Hinton broth containing 50 mg/l calcium chloride and 25 mg/l magnesium chloride were innoculated into media lacking or containing 1 µg/ml amikacin; this concentration of antibiotic allows almost normal growth of the bacterial culture. The bacterial cultures were incubated until mid-logarithmic phase of growth was attained, and then the bacteria were harvested by centrifugation, and resuspended to 5 x 10⁴ cells/ml in gelatin veronal buffer. […] Opsonic activity of antibodies directed against amikacin-treated bacteria was determined in the presence of 1 µg/ml amikacin. […] The amount of bacterial killing, was determined by plating 25 µl from each tube onto solid agar, growing the plated bacteria overnight, and counting the number of colonies on the plate. […]
The opsonophagocytic activity of varying amounts of monoclonal antibody 6D7 towards P. aeruginosa strain FI-6 cells was determined in the presence or absence of subinhibitory concentrations of the antibiotic, cefepime. […]

`CO/N=C(\C(=O)N[C@@H]1C(=O)N2C(C(=O)[O-])=C(C[N+]3(C)CCCC3)CS[C@H]12)c1csc(N)n1` [cefepime] displayed a survival of 100%.
